Experimental data from patent US11331351B2, “Bacillus strains improving health and performance of production animals” (priority 2015, dated 2022).
Converted amounts (≈) assume the structure as drawn. Like-named read-outs stand apart in the source and are kept apart here. Bridge positions count the residues as written; N and C are the ends. Square brackets hold non-standard residues; d marks the D form. Peptide text beside a SMILES is read from it. * marks the point of attachment. Ileψ(thiazoline)Cys = CC[C@H](C)[C@H](N)C1=N[C@H](C(=O)*)CS1; dOrn = NCCC[C@@H](N)C(=O)O

Tests used:
B. subtilis DSM 29870 [1] = details: EFSA Journal 2012; 10(6): 2740; cited from earlier work
B. subtilis DSM 29871 [2] = details: EFSA Journal 2012; 10(6): 2740; cited from earlier work
B. subtilis DSM 29871 [3] = assay type: cell-based, Bacillus subtilis; details: for MIC: Bacillus subtilis
B. subtilis DSM 29870 [4] = assay type: cell-based, Bacillus subtilis; details: for MIC: Bacillus subtilis
[5] = tested on: B. amyloliquefaciens DSM 29869; assay type: cell-based, Bacillus amyloliquefaciens; details: for MIC: Bacillus amyloliquefaciens
[6] = tested on: B. amyloliquefaciens DSM 29869; details: EFSA Journal 2012; 10(6): 2740; cited from earlier work
Clostridium perfringens = assay type: in vivo, broiler chickens Cobb×Cobb; details: bacitracin 50 ppm; for Lesion score (d 21): 0 to 3 score; for BWG (g/bird) (d 1-d 28) / Dead birds with necrotic enteritis lesions (%) (d 1-d 28) / FCR (d 1-d 28) / Total mortality (%) (d 1-d 28): infected
[7] = DSM29871, biological replicate MIC 1, 37° C., 20-24 h, read-out: MIC 1
[8] = DSM29871, biological replicate MIC 2, 37° C., 20-24 h, read-out: MIC 2
[9] = DSM29871, biological replicate MIC 3, 37° C., 20-24 h, read-out: MIC 3
[10] = DSM29870, biological replicate MIC 1, 37° C., 20-24 h, read-out: MIC 1
[11] = DSM29870, biological replicate MIC 2, 37° C., 20-24 h, read-out: MIC 2
[12] = DSM29870, biological replicate MIC 3, 37° C., 20-24 h, read-out: MIC 3
[13] = DSM29869, biological replicate MIC 1, 37° C., 20-24 h, read-out: MIC 1
[14] = DSM29869, biological replicate MIC 2, 37° C., 20-24 h, read-out: MIC 2
[15] = DSM29869, biological replicate MIC 3, 37° C., 20-24 h, read-out: MIC 3
[16] = biological replicate MIC 1, 37° C., 20-24 h
[17] = Trial 1, DSM 29870 1.10^9 CFU/kg of feed
[18] = Trial 2, DSM 29870 5.10^8 CFU/kg of feed
[19] = Trial 3, DSM 29870 5.10^8 CFU/kg of feed
[20] = biological replicate MIC 2, 37° C., 20-24 h
[21] = biological replicate MIC 3, 37° C., 20-24 h

| Compound | EFSA breakpoints (B. subtilis DSM 29870 [1]) [µg/mL] | EFSA breakpoints (B. subtilis DSM 29871 [2]) [µg/mL] | MIC (B. subtilis DSM 29871 [3]; [7]) [µg/mL] | MIC (B. subtilis DSM 29871 [3]; [8]) [µg/mL] | MIC (B. subtilis DSM 29871 [3]; [9]) [µg/mL] | MIC (B. subtilis DSM 29870 [4]; [10]) [µg/mL] | MIC (B. subtilis DSM 29870 [4]; [11]) [µg/mL] | MIC (B. subtilis DSM 29870 [4]; [12]) [µg/mL] | MIC [5, 13] [µg/mL] | MIC [5, 14] [µg/mL] | MIC [5, 15] [µg/mL] | EFSA breakpoints [6] [µg/mL] | MIC 1 [5, 16] [µg/mL] | other results |
| --- | --- | --- | --- | --- | --- | --- | --- | --- | --- | --- | --- | --- | --- | --- |
| [H]/N=C(/N)N[C@H]1[C@H](O)[C@@H](O)[C@H](O[C@@H]2O[C@@H](C)[C@](O)(C=O)[C@H]2O[C@@H]2O[C@@H](CO)[C@H](O)[C@@H](O)[C@@H]2NC)[C@@H](N/C(N)=N\[H])[C@@H]1O [Streptomycin] | 8 | 8 | 32 (≈ 55 µM) | 16 (≈ 27.5 µM) | 32 (≈ 55 µM) | 4 (≈ 6.88 µM) | 4 (≈ 6.88 µM) | 8 (≈ 13.8 µM) | 2 (≈ 3.44 µM) | 4 (≈ 6.88 µM) | 4 (≈ 6.88 µM) | 8 |  |  |
| CN(C)[C@@H]1C(O)=C(C(N)=O)C(=O)[C@@]2(O)C(O)=C3C(=O)c4c(O)cccc4[C@@](C)(O)[C@H]3C[C@@H]12 [Tetracycline] |  |  | 2 (≈ 4.5 µM) | 4 (≈ 9 µM) | 4 (≈ 9 µM) | 0.25 (≈ 0.563 µM) | 0.25 (≈ 0.563 µM) | 0.25 (≈ 0.563 µM) | 16 (≈ 36 µM) | 8 (≈ 18 µM) | 8 (≈ 18 µM) |  | 16 (≈ 36 µM) |  |
| CN[C@H](CC(C)C)C(=O)N[C@H]1C(=O)N[C@@H](CC(N)=O)C(=O)N[C@H]2C(=O)N[C@H]3C(=O)N[C@H](C(=O)N[C@H](C(=O)O)c4cc(O)cc(O)c4-c4cc3ccc4O)[C@H](O)c3ccc(c(Cl)c3)Oc3cc2cc(c3O[C@@H]2O[C@H](CO)[C@@H](O)[C@H](O)[C@H]2O[C@H]2C[C@](C)(N)[C@H](O)[C@H](C)O2)Oc2ccc(cc2Cl)[C@H]1O [Vancomycin] | 4 | 4 | 0.25 (≈ 0.173 µM) |  |  | 0.25 (≈ 0.173 µM) |  |  | 0.25 (≈ 0.173 µM) |  | 0.25 (≈ 0.173 µM) | 4 |  | MIC (B. subtilis DSM 29871 [3]; DSM29871, read-out: MIC 2): 0.25 µg/mL (≈ 0.173 µM); MIC (B. subtilis DSM 29871 [3]; DSM29871, read-out: MIC 3): 0.25 µg/mL (≈ 0.173 µM); MIC (B. subtilis DSM 29870 [4]; DSM29870, read-out: MIC 2): 0.25 µg/mL (≈ 0.173 µM); MIC (B. subtilis DSM 29870 [4]; DSM29870, read-out: MIC 3): 0.25 µg/mL (≈ 0.173 µM); MIC ([5]; DSM29869, read-out: MIC 2): 0.25 µg/mL (≈ 0.173 µM) |
| CC[C@H](C)[C@H](N)C1=N[C@H](C(=O)N[C@@H](CC(C)C)C(=O)N[C@H](CCC(=O)O)C(=O)N[C@H](C(=O)N[C@H]2CCCCNC(=O)[C@H](CC(N)=O)NC(=O)[C@@H](CC(=O)O)NC(=O)[C@H](Cc3cnc[nH]3)NC(=O)[C@@H](Cc3ccccc3)NC(=O)[C@H]([C@@H](C)CC)NC(=O)[C@@H](CCCN)NC2=O)[C@@H](C)CC)CS1 [bacitracin] ({Ileψ(thiazoline)Cys}-L[dE]IK[dOrn]I[dF]H[dD]N; lactam 4-C) |  |  |  |  |  |  |  |  |  |  |  |  |  | Lesion score (d 21) (Clostridium perfringens; [17]): 0.2a; BWG (g/bird) (d 1-d 28) (Clostridium perfringens; [17]): 633ab g/bird; Dead birds with necrotic enteritis lesions (%) (d 1-d 28) (Clostridium perfringens; [17]): 1.6b %; FCR (d 1-d 28) (Clostridium perfringens; [17]): 1.813bc; Total mortality (%) (d 1-d 28) (Clostridium perfringens; [17]): 5.0b %; Lesion score (d 21) (Clostridium perfringens; [18]): 0.6b; BWG (g/bird) (d 1-d 28) (Clostridium perfringens; [18]): 665ab g/bird; Dead birds with necrotic enteritis lesions (%) (d 1-d 28) (Clostridium perfringens; [18]): 6.3c %; FCR (d 1-d 28) (Clostridium perfringens; [18]): 1.759b; Total mortality (%) (d 1-d 28) (Clostridium perfringens; [18]): 12.5bc %; Lesion score (d 21) (Clostridium perfringens; [19]): 0.6a; BWG (g/bird) (d 1-d 28) (Clostridium perfringens; [19]): 645a g/bird; Dead birds with necrotic enteritis lesions (%) (d 1-d 28) (Clostridium perfringens; [19]): 4.7bc %; FCR (d 1-d 28) (Clostridium perfringens; [19]): 1.786bc; Total mortality (%) (d 1-d 28) (Clostridium perfringens; [19]): 15.0a % |
| Gentamycin | 4 | 4 |  |  |  |  |  |  |  |  |  | 4 | 0.5 | MIC 1 (B. subtilis DSM 29871 [3]; [16]): 0.25 µg/mL; MIC 2 (B. subtilis DSM 29871 [3]; [20]): 0.125 µg/mL; MIC 3 (B. subtilis DSM 29871 [3]; [21]): 0.25 µg/mL; MIC 1 (B. subtilis DSM 29870 [4]; [16]): 0.25 µg/mL; MIC 2 (B. subtilis DSM 29870 [4]; [20]): 0.125 µg/mL; MIC 3 (B. subtilis DSM 29870 [4]; [21]): 0.25 µg/mL; MIC 2 [5, 20]: 0.125 µg/mL; MIC 3 [5, 21]: 0.06 µg/mL |
